# Data: patent US8952024B2, “Herbicidal pyrimidone derivatives” (E I du Pont de Nemours and Company, priority 2009, dated 2015)
# Experiments:
# Assay in all cases: Test B pre-/postemergence plant response
# Assay type in all cases: in vivo
# [1] = tested on: corn (Zea mays); conditions: for Corn plant response rating (0 to 100 scale): 62 g ai/ha, 0 is no effect, 13 to 15 days
# How it was run: (§1)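 Steps: sow seed in loam–sand soil and spray preemergence, or grow plants in peat-based medium to 1–4 leaves (2–18 cm) and spray postemergence; formulation is non-phytotoxic solvent plus surfactant; hold in greenhouse 13–15 days; score visually vs controls, 0 = no effect, 100 = complete control.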
# [2] = tested on: goosegrass (Eleusine indica); conditions: for Goosegrass plant response rating (0 to 100 scale): 62 g ai/ha, 0 is no effect, 13 to 15 days
# How it was run: as §1
# [3] = tested on: kochia (Kochia scoparia); conditions: for Kochia plant response rating (0 to 100 scale): 62 g ai/ha, 0 is no effect, 13 to 15 days
# How it was run: as §1
# [4] = tested on: soybean (Glycine max); conditions: for Soybean plant response rating (0 to 100 scale): 62 g ai/ha, 0 is no effect, 13 to 15 days
# How it was run: as §1
# [5] = tested on: morningglory (Ipomoea coccinea); conditions: for Morningglory plant response rating (0 to 100 scale): 62 g ai/ha, 0 is no effect, 13 to 15 days
# How it was run: as §1
# [6] = tested on: cocklebur (Xanthium strumarium); conditions: for Cocklebur plant response rating (0 to 100 scale): 62 g ai/ha, 0 is no effect, 13 to 15 days
# How it was run: as §1
# [7] = tested on: johnsongrass (Sorghum halepense); conditions: for Johnsongrass plant response rating (0 to 100 scale): 62 g ai/ha, 0 is no effect, 13 to 15 days
# How it was run: as §1
# [8] = tested on: velvetleaf (Abutilon theophrasti); conditions: for Velvetleaf plant response rating (0 to 100 scale): 62 g ai/ha, 0 is no effect, 13 to 15 days
# How it was run: as §1
# [9] = tested on: large crabgrass (Digitaria sanguinalis); conditions: for Crabgrass, Large plant response rating (0 to 100 scale): 62 g ai/ha, 0 is no effect, 13 to 15 days
# How it was run: as §1
# [10] = tested on: Italian ryegrass (Lolium multiflorum); conditions: for Ryegrass, Italian plant response rating (0 to 100 scale): 62 g ai/ha, 0 is no effect, 13 to 15 days
# How it was run: as §1
# [11] = tested on: giant foxtail (Setaria faberii); conditions: for Foxtail, Giant plant response rating (0 to 100 scale): 62 g ai/ha, 0 is no effect, 13 to 15 days
# How it was run: as §1
# [12] = tested on: blackgrass (Alopecurus myosuroides); conditions: for Blackgrass plant response rating (0 to 100 scale): 62 g ai/ha, 0 is no effect, 13 to 15 days
# How it was run: as §1
# [13] = tested on: ragweed (common ragweed, Ambrosia elatior); conditions: for Ragweed plant response rating (0 to 100 scale): 62 g ai/ha, 0 is no effect, 13 to 15 days
# How it was run: as §1
# [14] = tested on: green foxtail (Setaria viridis); conditions: for Foxtail, Green plant response rating (0 to 100 scale): 62 g ai/ha, 0 is no effect, 13 to 15 days
# How it was run: as §1
# [15] = 31 g ai/ha, postemergence, scale 0 to 100, 0 is no effect, 100 is complete control
# [16] = postemergence, 100 is complete control
# [17] = Postemergence, 125 g ai/ha, visual rating after 13 to 15 days, scale 0 (no effect) to 100 (complete control)
# [18] = Postemergence, 250 g ai/ha, scale 0 to 100 (0 no effect, 100 complete control)
smiles,measurement,setting,value
CCCCn1c(-c2ccccc2)ncc(C(=O)C2=C(O)CCCC2=O)c1=O [Compound 86],"Plant response rating, Corn",[1]; [15],10
same,Corn plant response rating (0 to 100 scale),[1]; [16],60
same,"Plant response rating, Corn",[1]; [17],80
same,"Plant response rating, Corn",[1]; [18],85
same,"Plant response rating, Goosegrass",[2]; [15],70
same,Goosegrass plant response rating (0 to 100 scale),[2]; [16],75
same,"Plant response rating, Goosegrass",[2]; [18],95
same,"Plant response rating, Kochia",[3]; [15],75
same,Kochia plant response rating (0 to 100 scale),[3]; [16],85
same,"Plant response rating, Kochia",[3]; [18],98
same,"Plant response rating, Soybean",[4]; [15],80
same,Soybean plant response rating (0 to 100 scale),[4]; [16],95
same,"Plant response rating, Soybean",[4]; [18],98
same,"Plant response rating, Morningglory",[5]; [15],70
same,Morningglory plant response rating (0 to 100 scale),[5]; [16],80
same,"Plant response rating, Morningglory",[5]; [18],100
same,"Plant response rating, Cocklebur",[6]; [15],85
same,Cocklebur plant response rating (0 to 100 scale),[6]; [16],95
same,"Plant response rating, Cocklebur",[6]; [17],95
same,"Plant response rating, Cocklebur",[6]; [18],98
same,"Plant response rating, Johnsongrass",[7]; [15],95
same,Johnsongrass plant response rating (0 to 100 scale),[7]; [16],98
same,"Plant response rating, Johnsongrass",[7]; [18],100
same,"Plant response rating, Velvetleaf",[8]; [15],98
same,Velvetleaf plant response rating (0 to 100 scale),[8]; [16],100
same,"Plant response rating, Velvetleaf",[8]; [18],100
same,"Plant response rating, Crabgrass, Large",[9]; [15],85
same,"Crabgrass, Large plant response rating (0 to 100 scale)",[9]; [16],98
same,"Plant response rating, Crabgrass, Large",[9]; [17],98
same,"Plant response rating, Crabgrass, Large",[9]; [18],98
same,"Plant response rating, Ryegrass, Italian",[10]; [15],25
same,"Ryegrass, Italian plant response rating (0 to 100 scale)",[10]; [16],30
same,"Plant response rating, Ryegrass, Italian",[10]; [18],60
same,"Plant response rating, Foxtail, Giant",[11]; [15],90
same,"Foxtail, Giant plant response rating (0 to 100 scale)",[11]; [16],95
same,"Plant response rating, Foxtail, Giant",[11]; [18],98
same,"Plant response rating, Blackgrass",[12]; [15],15
same,Blackgrass plant response rating (0 to 100 scale),[12]; [16],30
same,"Plant response rating, Blackgrass",[12]; [17],45
same,"Plant response rating, Blackgrass",[12]; [18],55
same,"Plant response rating, Ragweed",[13]; [15],80
same,Ragweed plant response rating (0 to 100 scale),[13]; [16],90
same,"Plant response rating, Ragweed",[13]; [18],98
same,"Plant response rating, Foxtail, Green",[14]; [15],70
same,"Foxtail, Green plant response rating (0 to 100 scale)",[14]; [16],95
same,"Plant response rating, Foxtail, Green",[14]; [18],100
O=C1CCCC(OC(=O)C2CC2)=C1C(=O)c1cnc(-c2ccccc2)n(-c2ccccc2)c1=O [Compound 88],"Plant response rating, Corn",[1]; [15],15
same,Corn plant response rating (0 to 100 scale),[1]; [16],65
same,"Plant response rating, Corn",[1]; [17],65
same,"Plant response rating, Corn",[1]; [18],80
same,"Plant response rating, Goosegrass",[2]; [15],65
same,Goosegrass plant response rating (0 to 100 scale),[2]; [16],70
same,"Plant response rating, Goosegrass",[2]; [18],70
same,"Plant response rating, Kochia",[3]; [15],75
same,Kochia plant response rating (0 to 100 scale),[3]; [16],75
same,"Plant response rating, Kochia",[3]; [18],85
same,"Plant response rating, Soybean",[4]; [15],75
same,Soybean plant response rating (0 to 100 scale),[4]; [16],90
same,"Plant response rating, Soybean",[4]; [18],98
same,"Plant response rating, Morningglory",[5]; [15],90
same,Morningglory plant response rating (0 to 100 scale),[5]; [16],90
same,"Plant response rating, Morningglory",[5]; [18],95
same,"Plant response rating, Cocklebur",[6]; [15],90
same,Cocklebur plant response rating (0 to 100 scale),[6]; [16],90
same,"Plant response rating, Cocklebur",[6]; [17],95
same,"Plant response rating, Cocklebur",[6]; [18],95
same,"Plant response rating, Johnsongrass",[7]; [15],95
same,Johnsongrass plant response rating (0 to 100 scale),[7]; [16],100
same,"Plant response rating, Johnsongrass",[7]; [18],100
same,"Plant response rating, Velvetleaf",[8]; [15],80
same,Velvetleaf plant response rating (0 to 100 scale),[8]; [16],90
same,"Plant response rating, Velvetleaf",[8]; [18],98
same,"Plant response rating, Crabgrass, Large",[9]; [15],95
same,"Crabgrass, Large plant response rating (0 to 100 scale)",[9]; [16],98
same,"Plant response rating, Crabgrass, Large",[9]; [17],98
same,"Plant response rating, Crabgrass, Large",[9]; [18],98
same,"Plant response rating, Ryegrass, Italian",[10]; [15],5
same,"Ryegrass, Italian plant response rating (0 to 100 scale)",[10]; [16],5
same,"Plant response rating, Ryegrass, Italian",[10]; [18],80
same,"Plant response rating, Foxtail, Giant",[11]; [15],95
same,"Foxtail, Giant plant response rating (0 to 100 scale)",[11]; [16],95
same,"Plant response rating, Foxtail, Giant",[11]; [18],95
same,"Plant response rating, Blackgrass",[12]; [15],0
same,Blackgrass plant response rating (0 to 100 scale),[12]; [16],5
same,"Plant response rating, Blackgrass",[12]; [17],5
same,"Plant response rating, Blackgrass",[12]; [18],10
same,"Plant response rating, Ragweed",[13]; [15],75
same,Ragweed plant response rating (0 to 100 scale),[13]; [16],80
same,"Plant response rating, Ragweed",[13]; [18],98
same,"Plant response rating, Foxtail, Green",[14]; [15],95
same,"Foxtail, Green plant response rating (0 to 100 scale)",[14]; [16],98
same,"Plant response rating, Foxtail, Green",[14]; [18],100
